From paper PMC3242765, “Inhibitors of Alphavirus Entry and Replication Identified with a Stable Chikungunya Replicon Cell Line and Virus-Based Assays” (PLoS ONE, 2011) come the findings set out here.

One test concerns SFV-Rluc.
Details: not given
Take `Cc1ncc(CO)c(CO)c1O.Cl` [PC-178]: the “SFV replication % left (surviving fraction, remaining percentage of SFV replication)” value was found to be 100.9%. For the compound `CCN(CC)CCOC(=O)c1ccc(N)cc1.Cl` [PC-167], the “SFV replication % left (surviving fraction, remaining percentage of SFV replication)” value was 105.4%. Still for that read-out and setting: the value for `O=C1NS(=O)(=O)c2ccccc21.[Na]` [PC-183] was 105.0%; that for `COc1ccc(CN(CCN(C)C)c2ccccn2)cc1.O=C(O)/C=C\C(=O)O` [PC-179] was 73.7%.

Staying with this test, now noted: Supplementary Table 2, moderately active compounds (25 - 60% remaining), primary screen at 50 µM.
Regarding `CCN(CC)CCCC(C)Nc1cc(/C=C/c2ccccc2Cl)nc2cc(Cl)ccc12` (stereo not shown) [NC-066], the “% left (remaining SFV replication)” value was determined as 45.8%. The same measure, in the same setting: the result for `C[C@@H]1O[C@@H](OC[C@H]2O[C@@H](Oc3c(-c4ccc(O)c(O)c4)oc4cc(O)cc(O)c4c3=O)[C@H](O)[C@@H](O)[C@@H]2O)[C@H](O)[C@H](O)[C@H]1O` [NC-090] reads 44.1%. The same measure, in the same setting: the result for `Cl.Cl.OCCN1CCN(CCC=C2c3ccccc3Sc3ccc(Cl)cc32)CC1` [PC-050] reads 55.2%.

`CCN(CC)c1ccc2cc(-c3nc4ccccc4[nH]3)c(=O)oc2c1` [NC-017]: the “% left (remaining SFV replication)” value worked out at 37.3%.

The test is the same for the next values; noted with them: primary screening of chemical libraries; compounds tested at 50 µM.
With `Oc1cc(O)c2c(c1)O[C@H](c1ccc(O)c(O)c1)[C@@H](O)C2` [NC-011], the “SFV replication % left” value is reported as 64.5%.

Consider `CCCCNc1ccc(C(=O)OCCN(C)C)cc1.Cl` [PC-034], for which the “SFV replication % left” value was found to be 63.8%. Same read-out and setting: the result for `O=c1oc2cc(O)ccc2cc1-c1nc2ccccc2o1` [NC-007] reads 21.0%. On the same count and under the same terms, the result for `O=C(O)c1ccccc1` [NC-005] reads 71.6%; that for `CCN(CC)CCCC(C)Nc1cc(/C=C/c2ccccc2Cl)nc2cc(Cl)ccc12` (stereo not shown) [NC-066], 45.8%; that for `Cc1ccc2oc(=O)ccc2c1` [NC-116], 83.6%.

As to `C[C@@H]1O[C@@H](OC[C@H]2O[C@@H](Oc3c(-c4ccc(O)c(O)c4)oc4cc(O)cc(O)c4c3=O)[C@H](O)[C@@H](O)[C@@H]2O)[C@H](O)[C@H](O)[C@H]1O` [NC-090], the “SFV replication % left” value stood at 44.1%.

`Oc1cc(O)c2c(c1)O[C@H](c1ccc(O)c(O)c1)[C@H](O)C2` [NC-034]: the “SFV replication % left” value is 97.1%. The same measure, in the same setting: the value for `COc1cc(O)c2c(=O)c(O)c(-c3ccc(O)c(O)c3)oc2c1` [NC-087] was 119.1%; that for `CN(C)CC/C=C1/c2ccccc2Sc2ccc(Cl)cc21.Cl` [PC-047] was 90.3%; that for `O=c1oc2c3c4c(cc2c2c1CCC2)CCCN4CCC3` [NC-130] was 82.1%. Same read-out and setting: the value for `O=C1NC(=O)C(c2ccccc2)(c2ccccc2)N1` [PC-068] was 66.3%; that for `Cc1cccc(C)c1NC(=O)C1CCCCN1C.Cl` (stereo not shown) [PC-112] was 74.9%; that for `COc1cc(-c2[o+]c3cc(O)cc(O[C@@H]4O[C@H](CO)[C@@H](O)[C@H](O)[C@H]4O)c3cc2O[C@@H]2O[C@H](CO)[C@@H](O)[C@H](O)[C@H]2O)cc(OC)c1O.[Cl-]` [NC-063] was 15.4%. Same read-out and setting: the value for `COc1cc2oc(=O)ccc2cc1O` [NC-109] was 120.6%; that for `Cl.Cl.OCCN1CCN(CCC=C2c3ccccc3Sc3ccc(Cl)cc32)CC1` [PC-050] was 55.2%.

Consider `CC(N)C(O)c1ccc(O)c(O)c1.Cl` (stereo not shown) [PC-133], for which the “SFV replication % left” value is 118.0%.

In the case of `O=c1c(O)c(-c2cc(O)c(O)c(O)c2)oc2cc(O)cc(O)c12` [NC-068], the “SFV replication % left” value is given as 2.0%.

For `CC(C)NCC(O)c1ccccc1Cl.Cl.O` (stereo not shown) [PC-051], the “SFV replication % left” value is given as 63.7%. The same measure, in the same setting: the result for `Cc1ccc(C)c(O)c1` [NC-029] reads 84.6%; that for `COc1cc2ccc(=O)oc2c(O)c1O` [NC-110], 103.6%; that for `O=c1c(O)c(-c2ccc(O)cc2)oc2cc(O)cc(O)c12` [NC-057], 2.9%. Turning to `Cc1cc(=O)oc2cc(O)cc(O)c12` [NC-122], the “SFV replication % left” value was 66.7%. On the same count and under the same terms, the value for `CC(C)NCC(O)c1ccc(O)c(O)c1.Cl` (stereo not shown) [PC-103] was 112.5%.

Turning to `COc1ccc2cc([C@H](C)C(=O)O)ccc2c1` [PC-126], the “SFV replication % left” value was found to be 92.7%.

As to `O=C1Nc2ccc(Cl)cc2C(c2ccccc2Cl)=NC1O` (stereo not shown) [PC-106], the “SFV replication % left” value is recorded as 98.2%.

For the compound `CC(=O)c1ccc(O)cc1` [NC-049], the “SFV replication % left” value was found to be 29.4%. The same measure, in the same setting: the result for `C[C@](N)(Cc1ccc(O)c(O)c1)C(=O)O` [PC-118] reads 99.1%; that for `CC(C)(CO)[C@@H](O)C(=O)NCCC(=O)[O-].CC(C)(CO)[C@@H](O)C(=O)NCCC(=O)[O-].[Ca+2]` [PC-035], 67.9%.

As to `Br.COC(=O)C1=CCCN(C)C1` [PC-016], the “SFV replication % left” value is given as 83.6%. Same read-out and setting: the result for `CC(=O)Nc1nnc(S(N)(=O)=O)s1` [PC-003] reads 71.3%. Still for that read-out and setting: the value for `COc1cc(C(=O)O)ccc1O` [NC-105] was 53.4%; that for `O.O.O.O=c1ccc2cc(O[C@@H]3O[C@H](CO)[C@@H](O)[C@H](O)[C@H]3O)c(O)cc2o1.O=c1ccc2cc(O[C@@H]3O[C@H](CO)[C@@H](O)[C@H](O)[C@H]3O)c(O)cc2o1` [NC-127] was 95.0%.

Turning to `O=C(O)c1ccc(O)c(O)c1` [NC-026], the “SFV replication % left” value turned out to be 124.5%. Same read-out and setting: the value for `CCN(CC)c1ccc2cc(C(=O)c3cccs3)c(=O)oc2c1` [NC-022] was 15.6%.

Consider `Cl.Cl.OCCN1CCN(CC/C=C2/c3ccccc3Sc3ccc(C(F)(F)F)cc32)CC1` [PC-082], for which the “SFV replication % left” value is on record as 92.6%.

Regarding `CCN(CC)c1ccc2cc(-c3nc4ccccc4n3C)c(=O)oc2c1` [NC-016], the “SFV replication % left” value is on record as 12.3%. Still for that read-out and setting: the value for `CC(=O)Nc1ccccc1` [PC-002] was 57.3%; that for `O=C(O)Cc1cccc(O)c1` [NC-051] was 110.8%; that for `O=c1ccc2ccc(O)c(O)c2o1` [NC-112] was 90.6%. The same measure, in the same setting: the value for `COc1ccccc1OCC(O)CO` (stereo not shown) [PC-086] was 124.5%; that for `C=CCOc1ccccc1OCC(O)CNC(C)C.Cl` (stereo not shown) [PC-142] was 92.4%.

With `O=S(=O)(O)NC1CCCCC1` [PC-053], the “SFV replication % left” value is listed as 74.9%. For the compound `O=c1ccc2ccc(O)cc2o1` [NC-115], the “SFV replication % left” value amounted to 78.4%. Turning to `C[C@@H]1O[C@@H](Oc2c(-c3ccc(O)c(O)c3)oc3cc(O)cc(O)c3c2=O)[C@H](O)[C@H](O)[C@H]1O.O.O` [NC-083], the “SFV replication % left” value amounted to 11.4%. As to `CCCOC(=O)c1cc(O)c(O)c(O)c1` [NC-076], the “SFV replication % left” value amounted to 33.6%. The same measure, in the same setting: the result for `CC[C@@]1(O)C(=O)OCc2c1cc1n(c2=O)Cc2cc3ccccc3nc2-1` [NC-099] reads 87.7%. Still for that read-out and setting: the value for `COc1ccc2ccc(=O)oc2c1` [NC-124] was 53.2%; that for `O=c1oc2c(O)c(O)cc3c(=O)oc4c(O)c(O)cc1c4c23` [NC-033] was 64.9%; that for `O=C(O)c1cc(O)cc(O)c1` [NC-027] was 6.9%. On to `COc1ccc(C(=O)Cc2c(CCN(C)C)cc3c(c2OC)OCO3)c(C(=O)O)c1OC` [PC-127], for which the “SFV replication % left” value was found to be 118.3%. Turning to `CN(C)c1cccc2c(S(=O)(=O)Cl)cccc12` [NC-032], the “SFV replication % left” value came out at 4.6%. Same read-out and setting: the value for `CC[C@H]1CN2CCc3cc(OC)c(OC)cc3[C@@H]2C[C@@H]1C[C@H]1NCCc2cc(OC)c(OC)cc21.Cl.Cl` [PC-072] was 63.1%; that for `O=c1oc2ccccc2c(O)c1Cc1c(O)c2ccccc2oc1=O` [PC-063] was 65.6%. The same measure, in the same setting: the value for `CCCCNCC(O)c1ccc(O)cc1` (stereo not shown) [PC-019] was 67.1%; that for `CCC(NC(C)C)C(O)c1ccc(O)c(O)c1` (stereo not shown) [PC-101] was 90.7%. On the same count and under the same terms, the result for `NCC(O)c1cccc(O)c1` (stereo not shown) [PC-135] reads 126.3%; that for `O=C(/C=C/c1ccc(O)c(O)c1)O[C@H](Cc1ccc(O)c(O)c1)C(=O)O` [NC-088], 120.3%. For the compound `NS(=O)(=O)c1cc2c(cc1Cl)N=CNS2(=O)=O` [PC-045], the “SFV replication % left” value is 90.3%. Turning to `Cl.c1ccc(CN(CC2=NCCN2)c2ccccc2)cc1` [PC-014], the “SFV replication % left” value came out at 38.7%. As to `CCN(CC)c1ccc2cc(-c3nc4ccccc4[nH]3)c(=O)oc2c1` [NC-017], the “SFV replication % left” value is recorded as 37.3%.

On to `NCCCS(=O)(=O)O` [PC-090], for which the “SFV replication % left” value came to 118.7%. For `C=CC[C@]1(O)CC[C@H]2[C@@H]3CCC4=CCCC[C@@H]4[C@H]3CC[C@@]21C` [PC-009], the “SFV replication % left” value was determined as 37.2%. On the same count and under the same terms, the value for `O=C1CN(/N=C/c2ccc([N+](=O)[O-])o2)C(=O)N1` [PC-131] was 58.9%; that for `CC(C(=O)[O-])c1cccc(Oc2ccccc2)c1.CC(C(=O)[O-])c1cccc(Oc2ccccc2)c1.[Ca+2]` (stereo not shown) [PC-080] was 87.6%. Still for that read-out and setting: the value for `O=C(OC[C@H]1OC(O)[C@@](O)(COC(=O)c2cc(O)c(O)c(O)c2)[C@@H]1O)c1cc(O)c(O)c(O)c1` (stereo partly shown) [NC-045] was 14.7%; that for `OCc1ccccc1O[C@@H]1O[C@H](CO)[C@@H](O)[C@H](O)[C@H]1O` [NC-091] was 104.4%; that for `CCC(CN(C)C)(CN(C)C)OC(=O)c1ccccc1.Cl` [PC-012] was 43.4%.

With `Oc1cccc(O)c1O` [NC-078], the “SFV replication % left” value was 22.7%. On the same count and under the same terms, the value for `CN1CCN=C(c2ccccc2)c2cc(Cl)ccc21` [PC-107] was 87.5%; that for `Cc1cc(N)c2ccccc2[n+]1CCCCCCCCCC[n+]1c(C)cc(N)c2ccccc21.[Cl-].[Cl-]` [PC-056] was 62.5%; that for `NC(=O)N/N=C/c1ccc([N+](=O)[O-])o1` [PC-132] was 83.7%. The same measure, in the same setting: the result for `C[N+]1(C)[C@@H]2CC[C@H]1C[C@@H](OC(=O)C(CO)c1ccccc1)C2.O=[N+]([O-])[O-]` (stereo partly shown) [PC-018] reads 46.8%; that for `COc1cc2ccc(=O)oc2cc1O` [NC-114], 81.9%. Take `CCN(CC)CCCC(C)Nc1ccnc2cc(Cl)ccc12.O=P(O)(O)O.O=P(O)(O)O` (stereo not shown) [PC-044]: the “SFV replication % left” value worked out at 12.2%. The same measure, in the same setting: the value for `Oc1cccc(O)c1` [NC-085] was 83.0%; that for `CC(C)(C)NC[C@H](O)COc1cccc2c1CCCC2=O` [PC-027] was 59.6%.
